Experimental data from ChEMBL document CHEMBL1127571, “S-(N-aryl-N-hydroxycarbamoyl)glutathione derivatives are tight-binding inhibitors of glyoxalase I and slow substrates for glyoxalase II” (J Med Chem, 1994).

Key:
[1] = Vm value of the compound; assay type: ADME
[2] = tested on: NC(CCC(=O)NC(CSC(=O)N(O)c1ccccc1)C(=O)NCC(=O)O)C(=O)O; settings: Bos taurus
Description: Michaelis-Menten constant was tested for inhibitory activity against bovine liver glyoxalase II

Compound	Vm [1]	Km [2]
NC(CCC(=O)NC(CSC(=O)N(O)c1ccc(Cl)cc1)C(=O)NCC(=O)O)C(=O)O (centres undefined)	1.5e-05	
NC(CCC(=O)NC(CSC(=O)N(O)c1ccc(Br)cc1)C(=O)NCC(=O)O)C(=O)O (centres undefined)	2.1e-05	
NC(CCC(=O)NC(CSC(=O)N(O)c1ccccc1)C(=O)NCC(=O)O)C(=O)O (centres undefined)	4.6e-06	
Hydroxyacylglutathione hydrolase, mitochondrial (Homo sapiens) (from UniProt Q16775)		13 µM
